Data: the supplement of paper PMC8566230
± gives the standard deviation of the averaged measurements.

Experiments:
Assay in all cases: cell viability with growth factor relative to same drug with BSA mock; higher = growth factor protects cells from drug (more viable cells)
Conditions in all cases: treatment time: 6 days
SK-N-AS = tested on: SK-N-AS
Description: (§1)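 Six neuroblastoma cell lines were treated with a kinase inhibitor or vincristine at a fixed dose (70–90% lethal) plus a growth factor (100 ng/ml) or 0.1% BSA mock for 72 h. Drugs and growth factors were then renewed for another 72 h (6 days total). Viability was read by XTT in triplicate and normalised to the same drug plus BSA (=100%).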

SK-N-SH = tested on: SK-N-SH
Description: as §1

SH-SY5Y = tested on: SH-SY5Y
Description: as §1

Kelly = tested on: Kelly
Description: as §1

SK-N-BE = tested on: SK-N-BE
Description: as §1

LAN-1 = tested on: LAN-1
Description: as §1

CNC(=O)c1ccccc1Sc1ccc2c(/C=C/c3ccccn3)n[nH]c2c1 [axitinib]
cell viability with growth factor [%]
Conditions	added growth factor (100 ng/ml): BDNF	added growth factor (100 ng/ml): EPO	added growth factor (100 ng/ml): HGF	added growth factor (100 ng/ml): IGF-1	added growth factor (100 ng/ml): NGF	added growth factor (100 ng/ml): SCF
Kelly, drug concentration: 10 uM	143 ± 2	177 ± 19	94.1 ± 20	57.3 ± 21	148 ± 2.5	106 ± 12
LAN-1, drug concentration: 5 uM	112 ± 12	173 ± 13	93 ± 28	98.5 ± 17	159 ± 30	117 ± 8.8
SH-SY5Y, drug concentration: 2.5 uM	104 ± 15	138 ± 23	95.7 ± 17	80.7 ± 16	137 ± 12	107 ± 2.2
SK-N-AS, drug concentration: 5 uM	95.7 ± 6.5	101 ± 7.1	85.5 ± 27	48.7 ± 2.5	96.1 ± 8	99 ± 6.2
SK-N-BE, drug concentration: 5 uM	103 ± 34	142 ± 8.8	100 ± 21	255 ± 41	122 ± 30	149 ± 32
SK-N-SH, drug concentration: 10 uM	109.9 ± 0.6	177 ± 27	96.8 ± 21	60 ± 5.2	118 ± 6.3	83.5 ± 19

COc1cc2nccc(Oc3ccc(NC(=O)C4(C(=O)Nc5ccc(F)cc5)CC4)cc3)c2cc1OC [cabozantinib]
cell viability with growth factor [%]
Conditions	added growth factor (100 ng/ml): BDNF	added growth factor (100 ng/ml): EPO	added growth factor (100 ng/ml): HGF	added growth factor (100 ng/ml): IGF-1	added growth factor (100 ng/ml): NGF	added growth factor (100 ng/ml): SCF
Kelly, drug concentration: 5 uM	109 ± 1.2	118 ± 3.6	84.5 ± 11	73 ± 30	133 ± 21	101 ± 8.5
LAN-1, drug concentration: 5 uM	125 ± 8.8	160 ± 35	168 ± 11	123 ± 11	161 ± 27	93.5 ± 13
SH-SY5Y, drug concentration: 2.5 uM	114 ± 22	127 ± 21	151 ± 9.4	139 ± 33	183 ± 25	81.1 ± 16
SK-N-AS, drug concentration: 7.5 uM	124 ± 15	99 ± 3.2	108 ± 12	84.9 ± 18	95.9 ± 3.2	96.9 ± 10
SK-N-BE, drug concentration: 7.5 uM	278 ± 42	200 ± 25	248 ± 48	316 ± 30	191 ± 8.9	251 ± 44
SK-N-SH, drug concentration: 5 uM	153 ± 14	110.1 ± 0.79	94.5 ± 8.7	59.6 ± 6.7	153 ± 3.5	124 ± 13

C[C@@H](Oc1cc(-c2cnn(C3CCNCC3)c2)cnc1N)c1c(Cl)ccc(F)c1Cl [crizotinib]
cell viability with growth factor [%]
Conditions	added growth factor (100 ng/ml): BDNF	added growth factor (100 ng/ml): EPO	added growth factor (100 ng/ml): HGF	added growth factor (100 ng/ml): IGF-1	added growth factor (100 ng/ml): NGF	added growth factor (100 ng/ml): SCF
Kelly, drug concentration: 1 uM	352 ± 40	365 ± 77	112 ± 35	176 ± 5.4	300 ± 15	107 ± 25
LAN-1, drug concentration: 2.5 uM	232 ± 53	241 ± 35	227 ± 46	186 ± 23	359 ± 36	142 ± 20
SH-SY5Y, drug concentration: 2.5 uM	118 ± 23	137 ± 13	174 ± 30	101 ± 24	184 ± 51	120 ± 11
SK-N-AS, drug concentration: 5 uM	103 ± 4.9	89.6 ± 9.9	106 ± 51	130 ± 2.1	73.9 ± 16	106 ± 19
SK-N-BE, drug concentration: 5 uM	422 ± 55	123 ± 85	88.9 ± 4.9	291 ± 44	173 ± 82	121 ± 22
SK-N-SH, drug concentration: 1 uM	122 ± 3.9	111 ± 5.7	82.7 ± 14	90.8 ± 22	210 ± 22	95.3 ± 19

Cc1nc(Nc2ncc(C(=O)Nc3c(C)cccc3Cl)s2)cc(N2CCN(CCO)CC2)n1 [dasatinib]
cell viability with growth factor [%]
Conditions	added growth factor (100 ng/ml): BDNF	added growth factor (100 ng/ml): EPO	added growth factor (100 ng/ml): HGF	added growth factor (100 ng/ml): IGF-1	added growth factor (100 ng/ml): NGF	added growth factor (100 ng/ml): SCF
Kelly, drug concentration: 500 nM	86.8 ± 2.7	238 ± 40	198 ± 9.8	292 ± 36	164 ± 34	95.8 ± 9.8
LAN-1, drug concentration: 5 nM	93.1 ± 4.4	228 ± 30	129 ± 14	138 ± 19	273 ± 23	97.6 ± 14
SH-SY5Y, drug concentration: 25 nM	131 ± 13	320 ± 21	97 ± 28	135 ± 13	217 ± 38	169 ± 6.2
SK-N-AS, drug concentration: 50 nM	117 ± 16	108 ± 8.2	134 ± 14	235 ± 27	104 ± 7.1	82.7 ± 13
SK-N-BE, drug concentration: 500 nM	90.9 ± 20	130 ± 5.7	111 ± 27	185 ± 19	83.6 ± 3.1	146 ± 12
SK-N-SH, drug concentration: 500 nM	99.7 ± 1	126 ± 5.9	151 ± 4.3	205 ± 33	116 ± 15	113 ± 22

Cc1ccc(NC(=O)c2ccc(CN3CCN(C)CC3)cc2)cc1Nc1nccc(-c2cccnc2)n1 [imatinib]
cell viability with growth factor [%]
Conditions	added growth factor (100 ng/ml): BDNF	added growth factor (100 ng/ml): EPO	added growth factor (100 ng/ml): HGF	added growth factor (100 ng/ml): IGF-1	added growth factor (100 ng/ml): NGF	added growth factor (100 ng/ml): SCF
Kelly, drug concentration: 25 uM	165 ± 36	184 ± 21	167 ± 46	145 ± 15	125 ± 3.2	134 ± 11
LAN-1, drug concentration: 20 uM	101 ± 4.4	121 ± 7.4	86.4 ± 27	117 ± 5.8	135 ± 18	99.4 ± 9.5
SH-SY5Y, drug concentration: 25 uM	94.8 ± 19	166 ± 25	106 ± 12	99.5 ± 3.6	207 ± 39	111 ± 7.6
SK-N-AS, drug concentration: 20 uM	104 ± 18	103 ± 22	123 ± 46	134 ± 24	111 ± 5.8	112 ± 19
SK-N-BE, drug concentration: 25 uM	103 ± 11	217 ± 32	103 ± 17	124 ± 5.7	179 ± 16	76.9 ± 2.5
SK-N-SH, drug concentration: 25 uM	106 ± 16	121 ± 10	143 ± 32	110 ± 36	110 ± 15	98.2 ± 18

CC[C@]1(O)C[C@H]2CN(CCc3c([nH]c4ccccc34)[C@@](C(=O)OC)(c3cc4c(cc3OC)N(C=O)[C@H]3[C@@](O)(C(=O)OC)[C@H](OC(C)=O)[C@]5(CC)C=CCN6CC[C@]43[C@@H]65)C2)C1 [vincristine]
cell viability with growth factor [%]
Conditions	added growth factor (100 ng/ml): BDNF	added growth factor (100 ng/ml): EPO	added growth factor (100 ng/ml): HGF	added growth factor (100 ng/ml): IGF-1	added growth factor (100 ng/ml): NGF	added growth factor (100 ng/ml): SCF
Kelly, drug concentration: 5 nM	86.8 ± 27	89.5 ± 19	95.4 ± 11	200 ± 22	70.2 ± 8	99.2 ± 12
LAN-1, drug concentration: 5 nM	84.5 ± 2.9	151 ± 11	116 ± 17	99.3 ± 29	92.4 ± 13	116 ± 28
SH-SY5Y, drug concentration: 25 nM	110 ± 12	149 ± 18	108 ± 23	110 ± 20	208 ± 19	97.4 ± 16
SK-N-AS, drug concentration: 5 nM	95 ± 8.7	78.5 ± 19	124 ± 7.1	219 ± 6.4	88.2 ± 6.7	97.3 ± 13
SK-N-BE, drug concentration: 20 nM	98 ± 21	171 ± 42	97.5 ± 6	116 ± 24	137 ± 5.2	128 ± 12
SK-N-SH, drug concentration: 5 nM	98 ± 4.7	152 ± 6.7	97.7 ± 12	142 ± 9.5	129 ± 13	88.1 ± 8.1
